According to patent publication US20240050402A1, “ANETHOLE TRITHIONE ADMINISTRATION REGIMEN FOR THE PREVENTION OR TREATMENT OF ISCHEMIA-REPERFUSION INJURIES” (priority 2020, published 2024):
Read-outs that look alike come from different tables or passages of the source.

Key:
[1] = Clinical pharmacokinetics study in healthy volunteers, IV bolus + 1-step infusion; assay type: in vivo, human; conditions: for Cmax / concentration at 12 hours: both sexes, human, plasma; for Cmax: intravenous, read-out: AOL plasma concentration Cmax; for concentration at 12 hours: iv, read-out: AOL plasma concentration End of 12-hour infusion (IV)
Description: The concentration of AOL in the subject's plasma can be measured by means and methods well known to the skilled artisan, such as liquid chromatography-mass spectrometry (LC/MS) or any other suitable means or method. For example, a blood sample from the subject can be centrifuged—preferably within 30 minutes after blood sampling—at about 1 500 g for 10 minutes at 2-8° C. to obtain plasma—the skilled artisan is familiar with method of obtaining plasma from a blood sample, and can readily adapt the centrifugal force, time, temperature and any other parameter according to their routine practice. Immediately after centrifugation, the plasma sample can be analyzed to assess the concentration of AOL by liquid chromatography-mass spectrometry (LC/MS).
A single site, randomized, placebo-controlled, open-label and single blind, ascending dose, cross-over study primarily aiming at evaluating the pharmacokinetics, safety and tolerability of AOL administered intravenously in healthy volunteers versus a marketed formulation of AOL (Sulfarlem 525 ®) administered orally was carried out at QPS Netherlands B.V. (Groningen, The Netherlands). Twelve healthy male and female subjects aged between 18 and 65 years old were included in this study.
During this clinical pharmacokinetics study, several dosage regimens have been tested to assess the safety of AOL and to better characterized its pharmacokinetics profile, when administered by IV route (Table 2).

[2] = tested on: myocardial ischemia-reperfusion, left coronary artery occlusion; test: In vivo ischemia-reperfusion model in rat (30 min left coronary artery occlusion, 3 h reperfusion); conditions: for reduction of the size of the myocardial infarction / reduction of the size of the no-reflow zone: versus control; for Area of necrosis/Area at risk (%) / Area of no-reflow/Area at risk (%): mean±SEM
Description: 64 female Sprague Dawley rats (— 6 months old) were anesthetized with intraperitoneal ketamine (90 mg/kg) and xylazine (10 mg/kg). Only female rats were used in this study as it was previously reported that gender had no effect on the extent of myocardial injury in the setting of experimental myocardial infarction in rats (Li & Kloner, 1995. J Thromb Thrombolysis. 2(3):221-225); and that lethal reperfusion-induced arrhythmias led to a higher mortality in male rats versus female rats (Dow et al., 2015. Springerplus. 4:96).
The animals were intubated and mechanically ventilated with room air at respiratory rate of 60 cycles/minute and tidal volume of 1 mL per 100 g body weight (Harvard Apparatus Rodent Ventilator, Model 683, South Natick, Mass). A water circulating heating pad was used to keep the rat body temperature at around 37° C. Their neck surgical area was shaved and cleaned, and catheters were inserted into the jugular vein (for drug delivery) and carotid artery (for arterial waveform monitoring) via cut downs. Under clean conditions, the chest cavity was opened through an incision in the left 4th intercostal space to expose the heart. The pericardium was gently removed to expose the anterior surface of the left ventricle. A 4-0 silk suture was placed under the proximal portion of the left coronary artery as it runs through the interventricular groove just under the tip of the left atrial appendage. The end of the suture was threaded through a small plastic tube to make a snare for coronary artery occlusion. At the time of occlusion, the artery was pulled through the plastic tube and the tube was clamped. Coronary artery reperfusion occurred by releasing the clamp and watching the surface of the heart for reactive hyperemia. The left coronary artery was occluded for 30 minutes followed by 3 hours of reperfusion.
Rats were randomized into one of the 3 groups: • preventive group (n=22): AOL infusion starting 5 minutes before coronary artery occlusion; • curative group (n=20): AOL infusion starting 5 minutes prior to reperfusion; • control group (n=22): vehicle infusion starting 5 minutes before coronary artery occlusion.
The investigators were blinded to the animal randomization. Infusions in all groups were continuous throughout the end of the study (h+3 after reperfusion). In treated rats, the dose of AOL was 0.2 mg/kg/hour delivered in saline at a rate of infusion of 2 mL/kg/hour.
By the end of the 3-hour reperfusion, a solution of thioflavin S was injected into the jugular vein during the last one minute of reperfusion to assess the distribution of the no-reflow phenomenon (also known as “zone of microvascular obstruction”). Thioflavin S is a dye that appears fluorescent in areas receiving perfusion, when heart slices are visualized under UV light; while the no-reflow area, that lacks perfusion, appears dark (non-fluorescent). At the end of the period of reperfusion after thioflavin S injection, the proximal coronary artery was briefly re-occluded and blue dye (Super imperse blue) was injected into the jugular vein.
At the end of this step, the animal was euthanized under deep anesthesia with ketamine/xylazine by intravascular injection of KCl (149 mg/mL) at 0.5 mL/250 g body weight in order to stop the heart in a relative diastolic or relaxed state. The heart was excised and was gently washed in clear saline, and then transected into 4 transverse slices from apex to base.
The heart slices were photographed under white light in order to delineate the ischemic risk zone (pink) versus the non-ischemic regions (blue) that received the blue dye. The heart slices were then photographed under UV light in order to delineate the areas of perfusion by thioflavin S (fluorescent areas) versus the no-reflow zones (non-fluorescent).
Finally, hearts were incubated in 1% of triphenyl tetrazolium chloride (TTC), a chemical that stains viable cells brick red, while dead or necrotic cells appear white. […]

[3] = tested on: myocardial ischemic-reperfusion, LAD coronary artery occlusion; test: In vivo ischemia-reperfusion model in sheep (balloon catheter LAD occlusion); conditions: ST-segment elevation, troponin Ic, CPK, infarct size, ejection fraction; level when occluding balloon deflated
Description: (§1) Here, we investigated the effect of AOL in an in vivo ischemic-reperfusion model in sheep, by administering AOL prior to reperfusion to assess the cardioprotective potential of AOL. Several parameters were evaluated: • the infarct size, determined at the end of the experiment (day 3), and assessed by two independent pathologists; • the plasmatic exposure, evaluated by dosing plasma samples collected at regular intervals after administration of AOL by mass spectrometry; • ECG parameters; and • heart contractility, assessed through the measurement of the ejection fraction.
The efficacy of AOL was evaluated by comparing these parameters in vehicle- and AOL-treated groups using the sheep model.
Sheep underwent a myocardial ischemic-reperfusion, while either receiving AOL or the vehicle as a control. The animals underwent a three-day follow-up period and were euthanized on day 3.
Myocardial ischemic followed by reperfusion was induced by using the balloon catheter procedure, which consists in occluding the distal left anterior descending (LAD) coronary artery by inflating/deflating a balloon. This particular procedure allowed to have infarction sizes highly reproducible and to occlude only temporally the coronary artery.
AOL or vehicle were administered as a bolus intravenous (IV) injection 10 minutes prior to reperfusion. […]

[4] = Two-step infusion after bolus, AOL plasma concentration in human; assay type: in vivo; conditions: 2-step infusion 6 then 3 μg/kg/h (3 h + 9 h), lower and higher bolus doses
Description: In that respect, the management of the immediate post-initiation period has been evaluated using a 2-step infusion approach, i.e., starting with a higher dose (6 jig/kg/h) in the first 3 hours of infusion, and then stepping down to a lower dose (3 jig/kg/h) for the remaining time (in this example, 9 hours, for a total infusion period of 12 hours).
The same 2-step infusion regimen was tested with 2 different bolus doses.

[5] = Plasma exposure of AOL metabolite in sheep after bolus/infusion; assay type: in vivo; conditions: limit of quantification
Description: as §1
AOL or vehicle were administered as a bolus intravenous (IV) injection 10 minutes prior to reperfusion. This bolus injection was expected to ensure an effective AOL plasma exposure on reperfusion and was immediately followed by a continuous IV infusion starting at the beginning of the reperfusion, for a total duration of administration (bolus+infusion) of 130 minutes.
This starkly contrasted with the metabolization profile that we had observed in sheep (Example 2), where AOX remained below the limit of quantification (0.5 ng/mL) after bolus/infusion, despite similar or even higher doses (FIGS. 9B & 9C).

[6] = bolus 0.3 μg/kg, infusion 0.4 μg/kg/hr for 12 hours
[7] = bolus 0.9 μg/kg, infusion 1.7 μg/kg/hr for 12 hours
[8] = bolus 1.8 μg/kg, infusion 3 μg/kg/hr for 12 hours
[9] = bolus 4 μg/kg, infusion 6 μg/kg/hr for 12 hours
[10] = curative (shortly before reperfusion)
[11] = curative group: AOL 0.2 mg/kg/hour infusion starting 5 minutes prior to reperfusion
[12] = preventive (prior to coronary artery occlusion)
[13] = preventive group: AOL 0.2 mg/kg/hour infusion starting 5 minutes before coronary artery occlusion

With `COc1ccc(-c2cc(=S)ss2)cc1` [AOL, 5-(4-methoxyphenyl)dithiole-3-thione] the “slope of linear regression, plasma concentration at Cmax (Y) versus bolus dose (X)” value ([1]; Y=slope×X, FIG. 8A) was 1.046, the “slope of linear regression, plasma concentration at end of infusion (Y) versus infusion dose (X)” value ([1]; Y=slope×X, FIG. 8B) was 0.5723 and the “time at which steady state was reached” value ([1]; all dosage regimens tested) was “around 3 hours”. For the same molecule, the “AOL plasma concentration Valley” value [1, 6] was roughly 0.08 ng/mL, the “AOL plasma concentration Valley” value [1, 7] was roughly 0.37 ng/mL and the “AOL plasma concentration Valley” value [1, 8] was roughly 0.72 ng/mL. For the same molecule, the “AOL plasma concentration Valley” value [1, 9] was roughly 2.67 ng/mL, the Cmax [1, 6] was 0.29 ng/mL and the Cmax [1, 7] was 1.04 ng/mL. It also gave a Cmax [1, 8] of 1.94 ng/mL, a Cmax [1, 9] of 4.14 ng/mL and a concentration at 12 hours [1, 6] of roughly 0.1 ng/mL. It also gave a concentration at 12 hours [1, 7] of roughly 0.8 ng/mL, a concentration at 12 hours [1, 8] of roughly 1.7 ng/mL and a concentration at 12 hours [1, 9] of roughly 3.5 ng/mL. The “metabolization of AOL into AOX” value ([1]; human subjects, FIG. 9A) was “rapidly metabolized into AOX”, the “effect on hemodynamics (heart rate, arterial blood pressure)” value ([2]; baseline, end of occlusion, end of 3 hours reperfusion) was “without effect on hemodynamics” and the “reduction of the size of the myocardial infarction” value [2, 10] was 11%. The “reduction of the size of the no-reflow zone” value [2, 10] was 23%, the “Area of necrosis/Area at risk (%)” value [2, 11] was 50.8 ± 3.9^ % and the “Area of no-reflow/Area at risk (%)” value [2, 11] was 30.1 ± 2.3 %. The “reduction of the size of the myocardial infarction” value [2, 12] was 22%, the “reduction of the size of the no-reflow zone” value [2, 12] was 26% and the “Area of necrosis/Area at risk (%)” value [2, 13] was 44.5 ± 2.9^& %. The “Area of no-reflow/Area at risk (%)” value [2, 13] was 28.8 ± 2.4 %, the “AOL plasma level at reperfusion at which positive impact compared to vehicle was observed” value [3] was > 1 ng per mL of plasma and the “trough of AOL plasma concentration after the bolus” value [4] was “abolished the trough”.

In the case of `Oc1ccc(-c2cc(=S)ss2)cc1` [AOX, desmethylanethole trithione], the “appearance of AOX in plasma after start of AOL administration” value ([1]; human subjects, FIG. 9A) is reported as “quickly appeared in the plasma” and the AOX plasma concentration [5] is reported as less than 0.5 ng/mL.
